From EP1501797B1, “3-(SUBSTITUTED AMINO)-1H-INDOLE-2-CARBOXYLIC ACID ESTER AND 3-(SUBSTITUTED AMINO)-BENZO[B]THIOPHENE-2-CARBOXYLIC ACID ESTER DERIVATIVES AS INTERLEUKIN-4 GENE EXPRESSION INHIBITORS” (Aventis Pharmaceuticals Inc., priority 2002, dated 2003)

Tests used:
IL-4 = assay: Human primary Th2 cells, anti-CD3/anti-CD28 activated, IL-4 ELISA; format: cell-based; settings: human primary Th2 cells, anti-CD3 and anti-CD28 (Table 5)
Method: (§1) Briefly, CD4^+CD45RA^+ T cells, isolated from donor peripheral blood mononuclear cells of healthy donors, are educated in the presence of anti-CD3/CD28 antibodies and various growth factors to obtain either a Thl-like or Th2-like phenotypes as determined by the known cytokine profiles of these two cell types.
(§2) Peripheral blood mononuclear cells (PBMC) are prepared from human blood by Ficoll-Hypacque (Pharmacia). The cells are washed two times in Hanks balanced salt solution (HBSS) and counted.
(§3) Naive T cells (CD4^+/CD45RA ) are prepared by negative selection method using following antibodies and Dynabeads: anti-CD8, anti-HLA-DR, (where HLA means human leucocyte antigen) anti-CD14, anti-CD16, anti-CD19, anti-CD45RO antibodies (all from R&D Systems, 1-2 µg/ml) are added to the cells, and the cells are kept on ice for 30 min. The cells are washed two times in HBSS, and goat anti- mouse Ig-beads, (bead:target ratio, 5:1) are added. The cells and beads are slowly rotated at 4°C for 20 min. (following the protocol supplied from Dynal). The supernatant is removed and fresh goat anti-mouse Ig-beads are added to the supernatant, which is slowly rotated at 4°C for 20 min. The cells are counted and phenotypically characterized by flow cytometric analysis.
(§4) CD4^+/CD45RA^+ cells at a density of 10^6/ml in RPMI, is prepared and added to RPMI medium containing 10% Hyclone serum/ glutamine and 1-2 µg/ml anti-CD28 Ab. The cells are split in two aliquots. For Th1 cells: anti-IL-4 Ab (1-2 µg/ml), IFN-γ (1 µg/ml, or 5000 units/ml) are added to the wells. For Th2 cells: IL-4 (100-200 ng/ml), anti-IFN-γ neutralizing Ab (1-2 µg/ml), anti-IL-12 neutralizing Ab (1-2 µg/ml) are added into the wells. […] The cells are transferred to fresh wells and grown in 200 units/ml IL-2 for 2 weeks by feeding them every other day with IL-2 containing medium and splitting the cultures 1:2 or 1:3 as needed. The degree of polarization is determined by intracellular staining of cells with anti-IFN-γ and anti-IL-4 antibodies from Pharmingen, and using flow cytometry from Becton Dickinson (BD), according to manufacturers description. The cells are stimulated with PHA and alloantigens at day 14 and 28 as described below. Eight days after the second allostimulation the cells can be used for compound screening or frozen for future use. For compound testing, large quantities of Th1 and Th2 cells derived from a given donor (NYTh1 and NYTh2) were expanded and frozen as aliquots in liquid nitrogen. The cells are thawed and cultured as and when needed. The thawed cells are stimulated with alloantigen/PHA combination. The cells are used for compound screening after 8-10 days in culture.
(§5) Re-stimulation by allogeneic cells: Human PBMCs, to be used as alloantigens, are isolated from freshly drawn blood by Ficoll separation. […] Cells are counted and diluted to a final concentration of 2 x 10^6/ml in medium containing 10 µg/ml PHA and 200 units/ml IL-2.
(§6) Ninetysix well Falcon tissue culture plates (Fisher Scientific) are coated with 100 microliters per well of 10 µg/ml anti-CD3 (PharMingen) antibody in phosphate buffered saline (PBS) and stored at 4°C one day before the experiment.
(§7) On the day of assay, anti-CD3 antibody coated plates are washed with PBS once to remove all soluble anti-CD3 antibody. […] All compounds and controls are assayed in triplicates.

IFN-γ = assay: Human primary Th2 cells, anti-CD3/anti-CD28 activated, IFN-γ ELISA; format: cell-based; settings: human primary Th2 cells, anti-CD3 and anti-CD28 (Table 5)
Method: as §1, §2, §3, §4, §5, §6, §7

IL-13 = assay: Human primary Th2 cells, anti-CD3/anti-CD28 activated, IL-13 ELISA; format: cell-based; settings: human primary Th2 cells, anti-CD3 and anti-CD28 (Table 5)
Method: as §1, §2, §3, §4, §5, §6, §7

IL-5 = assay: Human primary Th2 cells, anti-CD3/anti-CD28 activated, IL-5 ELISA; format: cell-based; settings: human primary Th2 cells, anti-CD3 and anti-CD28 (Table 5)
Method: as §1, §2, §3, §4, §5, §6, §7

Human Th2 cells = assay: Human primary Th2 cells, proliferation (viability, MTS assay); format: cell-based; settings: human primary Th2 cells, anti-CD3 and anti-CD28 (Table 5); read-out: Prolif. IC50
Method: as §1, §2, §3, §4, §5, §6, §7

in vitro = settings: mouse, swiss 3t3 fibroblasts
Method: A third assay utilized in the present invention involves an in vitro cytotoxicity assay. This assay is used to further characterize the compounds in order to assess toxic activities of compounds on contact inhibited, non-dividing 3T3 fibroblasts. Other toxicity assays may be used.
Contact inhibited Swiss 3T3 fibroblasts are purchased from ATCC. The cells are maintained in 1640 RPMI supplemented with 10% fetal bovine serum (Gibco).
On day of assay, cells are detached from flasks by trypsinization, washed in medium and counted. 100 microliters of 2.5 x 10^4 cells per well are plated into Falcon brand 96 well tissue culture plates and cells incubated at 37°C in presence of 5% CO2 for 2 days or until confluent.
[…] All compound dilutions are assayed in triplicate. […] Cells are returned to the incubator for 2 days.
After 2 day incubation, the 3T3 cells are assayed for viability using an MTS Assay Kit (Promega). Media is added to blank wells for background calculations. After 2 hours incubation in kit reagent, the optical density at 490 nm for each compound and control is determined by plate reader.
Results are expressed as percent cytotoxicity, i.e., (mean OD of compound wells - background OD)/ (mean OD of controls - background).
Note that starting concentration of CsA was 1 µM. […]

Structure (SMILES) | IC50 (IL-4) [µM] | IC50 (IFN-γ) [µM] | IC50 (IL-13) [µM] | IC50 (IL-5) [µM] | IC50 (Human Th2 cells) [µM] | viability at 48 h, 0.001 µM (in vitro) [%] | viability at 48 h, 0.003 µM (in vitro) [%] | viability at 48 h, 0.01 µM (in vitro) [%] | viability at 48 h, 0.03 µM (in vitro) [%] | viability at 48 h, 0.1 µM (in vitro) [%] | viability at 48 h, 3 µM (in vitro) [%] | viability at 48 h, 10 µM (in vitro) [%]
O=C(Nc1c(C(=O)O)[nH]c2cc(Cl)cc(Cl)c12)c1ccccc1Cc1ccccc1 [Reference Example 87, 3-((2-Benzylbenzoyl)amino)-4,6-dichloro-1H-indole-2-carboxylic acid] | 0.6 | > 10 | > 10 | 2 | > 10 |  |  |  |  |  |  | 
CN(C(=O)c1ccccc1)c1c(C(=O)O)[nH]c2cc(F)ccc12 [Reference Example 86, 3-((Benzoyl)methylamino)-6-fluoro-1H-indole-2-carboxylic acid] | 1 | > 10 | > 10 | > 10 | > 10 |  |  |  |  |  |  | 
C[C@@H]1C[C@H]2[C@@H]3CCC4=CC(=O)C=C[C@]4(C)[C@@]3(F)[C@@H](O)C[C@]2(C)[C@@]1(O)C(=O)CO [Dexamethasone] |  |  |  |  |  | 100 | 77.9 | 71.6 | 67.8 | 64.2 | 60.7 | 60.5
CCOC(=O)c1[nH]c2ccccc2c1Nc1ccncc1 [Example 11, 3-(4-pyridinylamino)-1H-indole-2-carboxylic acid, ethyl ester] | > 10 | > 10 | > 10 | > 10 | > 10 |  |  |  |  |  |  | 
CCOC(=O)c1c(Nc2ccncc2)c2ccccc2n1C [Reference Example 24A, 1-Methyl-3-(4-pyridinylamino)-1H-indole-2-carboxylic ethyl ester] | 2 | > 10 | > 10 | > 10 | > 10 |  |  |  |  |  |  | 
CN(C)CCOC(=O)c1[nH]c2cc(Cl)ccc2c1NC(=O)c1ccccc1 [Example 79, 3-((Benzoyl)amino)-6-chloro-1H-indole-2-carboxylic acid 2-dimethylamino-ethyl ester] | 5 | > 10 | > 10 | > 10 | > 10 |  |  |  |  |  |  | 
CN(C(=O)CCc1ccccc1)c1c(C(=O)O)[nH]c2cc(Cl)ccc12 [Reference Example 76, 3-((3-Phenylpropanoyl)methylamino)-1H-6-chloro-indole-2-carboxylic acid] | 4 | > 10 | > 10 | > 10 | > 10 |  |  |  |  |  |  | 
CN(Cc1cnc2nc(N)nc(N)c2n1)c1ccc(C(=O)N[C@@H](CCC(=O)O)C(=O)O)cc1 [Methotrexate] |  |  |  |  |  | 113 | 105 | 103 | 100 | 98.9 | 93.8 | 92.4
CCOC(=O)c1[nH]c2cc(Cl)cc(Cl)c2c1N(Cc1ccccc1)C(=O)c1ccccc1 [Example 89, 3-((Benzoyl)benzylamino)-4,6-dichloro-1H-indole-2-carboxylic acid ethyl ester] | 2.5 | > 10 | > 10 | 8 | 4 |  |  |  |  |  |  | 
CCOC(=O)c1[nH]c2cc(Cl)cc(Cl)c2c1NS(=O)(=O)c1ccccc1 [Example 90, 3-((Phenylsulfonyl)amino)-4,6-dichloro-1H-indole-2-carboxylic acid ethyl ester] | 1 | > 10 | > 10 | > 10 | > 10 |  |  |  |  |  |  | 
O=C(Nc1c(C(=O)O)[nH]c2cc(Cl)ccc12)c1ccccc1 [Reference Example 78, 3-((Benzoyl)amino)-6-chloro-1H-indole-2-carboxylic acid] | 0.3 | > 10 | > 10 | > 10 | > 10 |  |  |  |  |  |  | 
O=C(O)c1[nH]c2cc(Cl)cc(Cl)c2c1NS(=O)(=O)c1ccccc1 [Reference Example 91, 3-((Phenylsulfonyl)amino)-4,6-dichloro-1H-indole-2-carboxylic acid] | 1 | > 10 | > 10 | > 10 | > 10 |  |  |  |  |  |  | 

Continued, in another order:

IC50 (IL-4) [µM] | IC50 (IFN-γ) [µM] | IC50 (IL-13) [µM] | IC50 (IL-5) [µM] | Structure (SMILES) | IC50 (Human Th2 cells) [µM] | viability at 48 h, 0.001 µM (in vitro) [%] | viability at 48 h, 0.003 µM (in vitro) [%] | viability at 48 h, 0.01 µM (in vitro) [%] | viability at 48 h, 0.03 µM (in vitro) [%] | viability at 48 h, 0.1 µM (in vitro) [%] | viability at 48 h, 3 µM (in vitro) [%] | viability at 48 h, 10 µM (in vitro) [%]
2.5 | > 10 | > 10 | > 10 | CN(C(=O)c1cccc(F)c1)c1c(C(=O)O)[nH]c2cc(Cl)cc(Cl)c12 [Reference Example 88, 3-((3-Fluorobenzoyl)methylamino)-4,6-dichloro-1H-indole-2-carboxylic acid] | > 10 |  |  |  |  |  |  | 
0.45 | > 10 | > 10 | > 10 | CN(c1c(C(=O)O)[nH]c2cc(Cl)cc(Cl)c12)S(=O)(=O)c1ccccc1 [Reference Example 92, 3-((Phenylsulfonyl)methylamino)-4,6-dichloro-1H-indole-2-carboxylic acid] | > 10 |  |  |  |  |  |  | 
3.6 | > 10 | > 10 | > 10 | CN(C(=O)c1ccccc1)c1c(C(=O)O)[nH]c2cc(Cl)cc(Cl)c12 [Reference Example 77, 3-((Benzoyl)methylamino)-4,6-dichloro-1H-indole-2-carboxylic acid] | > 10 |  |  |  |  |  |  | 
1 | > 10 | > 10 | > 10 | CN(C(=O)c1ccccc1)c1c(C(=O)O)[nH]c2cc(Cl)c(Cl)cc12 [Reference Example 84, 3-((Benzoyl)methylamino)-5,6-dichloro-1H-indole-2-carboxylic acid] | > 10 |  |  |  |  |  |  | 
6 | 9.5 | > 10 | 7 | O=C(O)c1[nH]c2cc(Cl)cc(Cl)c2c1N(Cc1ccccc1)C(=O)c1ccccc1 [Reference Example 81, 3-((Benzoyl)benzylamino)-4,6-dichloro-1H-indole-2-carboxylic acid] | > 10 |  |  |  |  |  |  | 
6 | > 10 | > 10 | > 10 | CN(C(=O)c1ccc(Cl)cc1)c1c(C(=O)O)[nH]c2cc(Cl)cc(Cl)c12 [Reference Example 80, 3-((4-chlorobenzoyl)methylamino)-4,6-dichloro-1H-indole-2-carboxylic acid] | > 10 |  |  |  |  |  |  | 
0.9 | > 10 | > 10 | > 10 | CCN(C(=O)c1ccccc1)c1c(C(=O)O)[nH]c2cc(Cl)cc(Cl)c12 [Reference Example 85, 3-((Benzoyl)ethlamino)-4,6-dichloro-1H-indole-2-carboxylic acid] | > 10 |  |  |  |  |  |  | 
